Reference: PMC8804135 (Neurotherapeutics, 2021)
Numbered stars: 1 amine (or outer) side, 2 acyl side, 3 side chain; on linkers, the order of the positions; unused ones are H or OH. Bridge positions count the residues as written; N and C are the ends. Square brackets hold non-standard residues; d marks the D form. Peptide text beside a SMILES is read from it. dAbu(3S-yl) = C[C@@H]([C@@H](N[*:1])C(=O)[*:2])[*:3]; pGlu = O=C1CC[C@@H](C(=O)O)N1

Tests used:
[1] = mouse, in vivo, 1 mg/kg
Protocol: Pharmacokinetics studies were performed at Pharmidex UK. The animal experimental protocols were approved by the UK Government Home Office and carried out in accordance with the guidelines of the Animals (Scientific Procedures) Act (1986). Ethical approval was subject to UK Home Office license number P651A96A4.
One mg HPLC-purified and HPLC-quantified M89b was dissolved in 1 ml Milli-Q followed by thorough vortexing and warming the solution for 10 min to 60 °C. From this solution, a dilution in 0.1% 2-hydroxypropyl-β-cyclodextrin was made. Male CD1 mice (weighing 26.5 to 32.9 g, n = 3 per time point) were used for the pharmacokinetic studies. Mice were given 1 mg/kg M89b either subcutaneously (s.c.) or intravenously (i.v.). Samples were collected after 2, 5, 10, 15, 30, 60, 120, and 240 min. Post-dosing, the 4 h mice were individually housed in metabolic cages for cold collection of urine in pre-weighed tubes which were re-weighed prior to storage. At each scheduled sampling time point, terminal blood was collected from each animal by cardiac puncture in heparin-containing tubes (20 IU heparin/mL of blood) kept on wet ice. The blood was centrifuged (5 min at 21, 100 g at 4 °C), and the resulting plasma was transferred to the corresponding labeled polypropylene tubes prior to storage. […]

GAL2R [2] = target: T1, GAL2R (Homo sapiens, UniProt O43603); assay: PathHunter eXpress β-arrestin recruitment assay, GAL2R; type: cell-based; set-up: expressed in transfected cells; conditions: Table 3; CHO-K1 cells co-expressing GAL2R and β-arrestin 2; 10 µM to 5 nM; (average) ratio, (n) in cell = number of assays; NA = ratio above 1000
T1 sequence (O43603 1-387): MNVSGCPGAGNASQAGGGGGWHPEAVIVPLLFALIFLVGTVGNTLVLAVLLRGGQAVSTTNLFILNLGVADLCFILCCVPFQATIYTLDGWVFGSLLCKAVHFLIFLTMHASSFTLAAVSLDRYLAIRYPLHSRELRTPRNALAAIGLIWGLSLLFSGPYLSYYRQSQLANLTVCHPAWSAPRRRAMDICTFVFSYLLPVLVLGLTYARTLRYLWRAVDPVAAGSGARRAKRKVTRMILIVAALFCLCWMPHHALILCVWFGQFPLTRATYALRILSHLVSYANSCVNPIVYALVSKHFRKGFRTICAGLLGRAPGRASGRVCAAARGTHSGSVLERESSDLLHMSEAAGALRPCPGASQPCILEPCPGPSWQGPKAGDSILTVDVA
Protocol: To evaluate the ability of lanthipeptides to recruit ß-arrestins via GAL1R or via GAL2R, we used the PathHunter® eXpress GAL1R, CHO-K1, β-arrestin GPCR Assay and the PathHunter® eXpress GAL2R, CHO-K1, β-arrestin, GPCR Assay from Eurofins-DiscoverX. The assays were performed according to the manufacturer’s instructions. Briefly, for one assay, CHO-K1 cells co-expressing GAL1R or GAL2R and β-arrestin (isoform 2) were diluted in AssayComplete™ Cell Plating Reagent, and 100 µl was seeded into each well of a 96-well plate. The plate was incubated at 37 °C, 5% CO2 in a humidified incubator. A serial 3 × dilution of the lanthipeptides in water was made (10 µM to 5 nM). After 48 h of incubation, 10 µl of the serial dilutions was applied to the cells in duplicate. The agonists were incubated for 90 min at 37 °C. Next, 55 µL of Working Detection Solution was added, and after 1 h of incubation at room temperature in the dark, the chemiluminescent signal was read with a Synergy HT Biotek reader.

GAL2R [3] = target: T1, GAL2R; assay: Fluo-4 Direct calcium assay (Ca efflux) in HEK293 cells overexpressing GAL2R; type: cell-based; conditions: Table 3; HEK293 cells stably overexpressing GAL2R; Fluo-4, from 10 µM; (average) ratio, (n) in cell = number of assays; NA = ratio above 1000
Protocol: Calcium efflux was measured by using a Fluo-4 Direct Calcium Assay purchased from Thermo Fisher Scientific. HEK293 cells with stable overexpression of GAL2R (HEKR2) (kindly provided by Harald Dargatz, Molecular, Cellular and Pharmacobiology Section, Institute of Pharmaceutical Biology, University of Bonn, 53,115 Bonn, Germany) were used for analysis of the lanthipeptides. HEKR2 cells were seeded in a 96-well plate and grown overnight in DMEM supplemented with 10% FBS, 1% penicillin–streptomycin, 100 µg/ml Normocin, and 500 µg/ml G418 at 37 °C, 5% CO2 in a humidified incubator.
The next day, when the cells were nearly confluent, an equal amount of 2 × Fluo-4 Direct™ calcium reagent loading solution, containing 5 mM probenecid, was added to the wells, and the plate was incubated for 1 h at 37 °C. A serial 3 × dilution of the agonist compound in water was made, and 10 µl of the serial dilutions was applied to the cells in duplicate. The starting concentration of agonist in the assay was 10 µM. After 1–2 h of incubation at room temperature, the fluorescence was measured with excitation at 485/20 nm and emission at 528/20 nm with a Synergy HT Biotek reader.

[4] = In vitro stability in rat serum; type: in vitro ADME; conditions: rat, serum, pH 7.4
Protocol: At various time points (0, 30, 90, 270, and 1410 min), 180 µl of samples were quenched with 10 µl 10% TFA and 20 µl 100% ACN. Samples were centrifuged and kept on ice. The amount of full-length peptides in the serum was analyzed using a C12 column (C12 RP 250 × 4.60 mm column, Phenomenex) on a JASCO HPLC system and applying a gradient of 10–90% ACN in 0.1% TFA for 45 min. Peptides were detected at 280 nm. A280 areas in chromatograms of the corresponding GAL-(1–15) and M89b full-length peptide peaks were used to determine the amount of peptide left after incubation with 5% rat serum at the different time points. Peptide peaks were determined using JASCO-Borwin Chromatography software (v1.50).

- Detection in urine samples [1]: not detected
- Detection in brain tissue ([1]; sc): not detected
- EC50 ratios to Gal-(1-15), GAL2R ß-Arrestin (GAL2R [2]): 1.7 (3)
- EC50 ratios to Gal-(1-15), GAL2R Ca-efflux (GAL2R [3]): 1.4 (3)
- half-life at 10 µM [4]: > 24 h
- metabolised at 23.5 h, 10 µM [4]: 40%
- remaining at 23.5 h, 10 µM [4]: ~60%
Compound: CC(C)C[C@H](NC(=O)[C@H](CC(C)C)NC(=O)[C@H](Cc1ccc(O)cc1)NC(=O)CNC(=O)[C@H](C)NC(=O)[C@H](C)NC(=O)[C@H](CC(N)=O)NC(=O)[C@H](CC(C)C)NC(=O)[C@H](CC(N)=O)NC(=O)[C@H](Cc1c[nH]c2ccccc12)NC(=O)[C@@H]1CCC(=O)N1)C(=O)N[C@@H](C)C(=O)N[C@H]1C(=O)N[C@@H](Cc2c[nH]cn2)C(=O)N[C@@H](C)C(=O)N[C@H](C(=O)NCC(=O)O)CS[C@H]1C [Variant M89b, G1pE-T3N-S6A-G12A-methyllanthionine[13–16]-galanin-(1–17)] ([pGlu]WNLNAAGYLLA[dAbu(3S-yl)]HACG-OH; thioether 13-16; C-terminus assumed)
